Measurements from patent US11389423B2, “Pharmaceutical composition, excipient for the composition and use of the composition” (priority 2018, dated 2022).

Key:
[1] = test system: mice (male and female); assay: Single dose (acute) toxicity study in mice; assay type: in vivo
Protocol: The single-dose (acute) toxicity study was carried out with different groups of rats and mice (male and female) and according to the procedures recommended by OECD (2001) and ANVISA (2013).
After a 6 h-fasting period, the animals' body weight was determined, and the dose of the synthetic CBD was calculated. Two single doses (1000 and 2000 mg/kg) of synthetic CBD were administered orally (with the aid of a gavage probe) and intraperitoneally in different groups of rats and mice (male and female). Other different groups of rodents were treated with placebo and were considered as control groups.
The animals were carefully observed for any toxicity signs within the first eight hours after treatment, and daily for a period of 14 days. On the 15th day all animals were euthanized, and the respective anatomopathological investigations were performed on the 15th day after the treatments.

[2] = test system: DNA of male and female rats; conditions: rats male and female, 500, 1000 and 2000 mg/kg orally, 48 hours, peripheral blood
Protocol: The negative control group received placebo by gavage and the positive control was treated with cyclophosphamide monohydrate (20 mg/kg—Sigma-Aldrich) intraperitoneally.

[3] = test system: male rabbits; assay: Electrocardiography; assay type: in vivo, New Zealand rabbits; conditions: male rabbits, 17, 51 and 170 mg/kg by gavage, one hour after treatment
Protocol: Male New Zealand rabbits (n=6 per group) were used for pharmacological safety tests. All tests were performed orally (route recommended for humans) and the investigated parameters were determined after a single administration of CBD-SINT. CBD-SINT doses were determined by allometric extrapolation from the average dose used in human patients (25 mg/kg).
The dose of 51 mg/kg was used as the intermediate dose, stipulating a higher and a lower dose. Three dose ranges were used according to the Guide for Conducting Non-Clinical Toxicology and Pharmacological Safety Studies Necessary for Drug Development (ANVISA, 2013; Version 1.2). Thus, the doses used were 17, 51 and 170 mg/kg of CBD-SINT.
a) Electrocardiography, wherein after a 6-h fasting, three doses of CBD (17, 51 and 170 mg/kg) were administered to different groups of male rabbits by gavage. Placebo was administered to the control group (1 mL/kg). One hour after treatments, all rabbits remained conscious in the supine position. Four electrodes (RL, RA, LL, and LA) were placed in the folds of both elbows and both knees. The V1 electrode was positioned in the 4th intercostal space to the right of the sternum. […] An acclimatization time of 5 min was waited, and then the cardiographic electric waves were recorded for 5 min. The electrocardiography was recorded with an ECG recorder (WinCardio, Micromed, Brasilia, Brazil).

[4] = test system: rats with MPTP microinfusion into the substantia nigra; assay: Morris water maze (cued test/memory version), MPTP model; assay type: in vivo; conditions: 36 and 120 mg/kg orally, day 1 to day 10 after MPTP
Protocol: For the experiments with MPTP (neuroprotection), the animals were divided into the following experimental groups: • MPTP+placebo • MPTP+CBD-SINT 12 mg/kg • MPTP+CBD-SINT 36 mg/kg • MPTP+CBD-SINT 120 mg/kg • Sham+placebo • Naive
CBD-SINT and placebo were administered orally (gavage) for 18 days prior to the administration of the neurotoxin by stereotactic surgery, and for another 10 days after surgery. After the administration of the neurotoxin, the behavioral (locomotor activity) and biochemical (brain dopamine dosage) parameters were evaluated after 24 hours and after 10 days. The memory tests (Morris water maze) were performed daily from day 1 to day 10 after the administration of the neurotoxin (FIG. 13).
The rats were submitted to stereotactic surgery (stereotactic—David Kopf, model 957L) and received bilateral microinfusion of MPTP or 6-OHDA (different groups of rats) directly into the substantia nigra. For surgery, the following stereotaxic coordinates were used: anteroposterior: 5.0 mm from the bregma; mediolateral: ±2.1 mm from the midline and dorsoventral: −7.7 mm from the cranial vault (Paxinos and Watson, 1986). Then, 100 μg MPTP (diluted in 1 μL saline, with a flow of 0.33 μL/min) or 8 μg 6-OHDA (diluted in 2 μL saline with 0.2 μg/μL ascorbic acid, with a flow rate of 0.33 μL/min) were injected. […]

[5] = 1000 mg/kg and 2000 mg/kg intraperitoneally, single dose

SMILES: C=C(C)[C@@H]1CCC(C)=C[C@H]1c1c(O)cc(CCCCC)cc1O [CBD-SINT, Cannabidiol]
- abdominal contortions during the first 8 hours [1, 5]: occasional abdominal contortions
- activity during the first 8 hours of observation [1, 5]: significant decrease in its activity
- daily feed and water consumption compared to placebo ([1]; 1000 and 2000 mg/kg, oral or intraperitoneal): no change
- final body weight and body weight gains vs placebo ([1]; 1000 and 2000 mg/kg, oral or intraperitoneal, 14 days): similar
- appearance and general behavior pattern until the end of the 14-days observation ([1]; 1000 and 2000 mg/kg, oral or intraperitoneal, after the first 8 h): no significant changes
- absolute (g) or relative (%) weight of all organs vs placebo ([1]; after 14 days): no significant differences
- histopathological analyzes ([1]; day 15): no significant changes
- macroscopic examination of vital organs ([1]; day 15): did not disclose any abnormalities
- deaths (LD50 not set forth) ([1]; doses up to 2000 mg/kg orally or intraperitoneally, 14 days): no deaths were observed
- DNA damage (Damage Index and Damage Frequency) vs negative control (placebo) [2]: none of the tested doses of CBD-SINT induced any significant changes
- PR, QRS or QT segments [3]: no significant changes
- amplitudes of P, R or T waves vs placebo [3]: no changes
- latency time to find the platform (memory deficit) [4]: prevented this deficit
